Data from patent US9802929B2, “Benzo five-membered nitrogen heterocyclic piperidine or piperazine derivatives and preparation methods and pharmaceutical compositions thereof” (Shenyang Haiwang Biotechnology Co., Ltd., priority 2012, dated 2017).

Experiments:
[1] = tested on: In-Vitro Vascular Smooth Muscle of Rabbits; test: Relaxant effect on in vitro rabbit vascular smooth muscle contraction induced by hyperkalemia solution; conditions: for EC50: Oryctolagus cuniculus, relaxation of rabbit aortic rings contracted by hyperkalemia solution (K+ 60 mmol/L); for relaxant effect against hyperkalemia solution contraction (in words): rabbit vascular smooth muscle
[2] = tested on: In Vitro Vascular Smooth Muscle of Rabbits; test: Relaxant effect on in vitro rabbit vascular smooth muscle contraction induced by adrenaline (AD); conditions: for EC50: Oryctolagus cuniculus, relaxation of rabbit aortic rings contracted by AD (10^−5 mol/L); for relaxant effect against AD contraction (in words): rabbit vascular smooth muscle, AD 10^−5 mol/L
Source text: Krebs-Henseleit (K—H) physiological solution: NaCl 6.92 (concentration units), KCl 0.35, MgSO4 0.29, KH2PO4 0.16, CaCl2 0.28, NaHCO3 2.1, glucose 2.0 (g/L), pH 7.2.
Preparation of compound II-1 to II-87 solutions: Weigh a certain quality compound samples and dilute to concentrations (10^−10˜10^−3 mol/L) with distilled water, standby.
Cut the chest open quickly after stunning, strip out the descending aorta, then after removing the surrounding connective tissue and adipose tissue (if performed serotonin receptor antagonist experiments, endothelial cells should be removed using a smooth stainless steel bars), cut the vessels into 3-5 mm vascular ring, then pass the steel hook through the blood vessel ring, with one end is fixed to the vent hook and the other end connected to the tension transducer, then place the specimens into bath tube containing 20 mL of nutrient solution, and record tension change by tension transducer. Maintain tube temperature at 37±0.5° C., and pass bubbles (95% O2+5% CO2) into the solution as a speed of 1-2 bubbles/minute. Place an initial load of 1.5 g on the rings, and change nutrient every 20 minutes, then balance for 2 hours and start test after baseline readings are stabilized.
After tension readings are stabilized, record a certain length of tension curve, and add spasmogens agent AD (10^−5 mol/L) to induce contraction; if a maximum contract is achieved, wash the specimens thoroughly, and change K—H solution every 20 minutes, and then balance for 60 minutes; after baseline readings are stabilized, induce contract with spasmogens agent again. When the maximum contract in the later induction is consistent with the former induction, add compound II-1 to II-34 solutions (1×10^−10 to 1×10^−3 mol/L), II-35 to II-87 solutions (1×10^−8-1×10^−3 mol/L), and record the curves. Draw a dose-response curve using maximum relaxation response as 100%, relaxation percentage as ordinate and negative logarithms of the each concentration as abscissa.

SMILES	EC50 [1] [µM]	other results
c1ccc2c(C3CCN(CCCCn4nnc5ccccc54)CC3)cccc2c1 [II-33, N-(4-(1H-benzotriazole-1-yl)butyl)-4-(1-naphthyl)piperidine]	91.2	
c1ccc2c(c1)nnn2CCCCN1CCC(C2CCCCC2)CC1 [II-32, N-(4-(1H-benzotriazole-1-yl)butyl)-4-cyclohexyl piperidine]	72.4	
c1ccc2c(c1)ncn2CCCCN1CCC(c2ccncc2)CC1 [II-30, N-(4-(1H-benzimidazol-1-yl)butyl)-4-(4-pyridyl)piperidine]	55	
FC(F)(F)c1cccc(C2CCN(CCCCn3nnc4ccccc43)CC2)c1 [II-4, N-(4-(1H-benzotriazole-1-yl)butyl)-4-(3-trifluoromethylphenyl)piperidine]	0.759	
COc1ccccc1C1CCN(CCCCn2cnc3ccccc32)CC1 [Compound II-6, N-(4-(1H-benzimidazol-1-yl)butyl)-4-(2-methoxyphenyl)piperidine]	41.7	
Clc1cccc(C2CCN(CCCCn3cnc4ccccc43)CC2)c1 [Compound II-1, N-(4-(1H-benzimidazol-1-yl)butyl)-4-(3-chlorophenyl)piperidine]	20.4	
Fc1ccc2c(C3CCN(CCCn4nnc5ccc(Cl)cc54)CC3)noc2c1 [II-15, N-(3-(6-chloro-1H-benzotriazole-1-yl)propyl)-4-(3-(6-fluorobenzoisoxazole))piperidine]	7.59	
Fc1ccc2c(N3CCN(CCCOn4nnc5ccccc54)CC3)noc2c1 [II-86]	26.3	EC50 [2]: 13.2 µM
COc1ccc2c(C3CCN(CCCn4nnc5ccccc54)CC3)noc2c1 [II-13, N-(3-(1H-benzotriazole-1-yl)propyl)-4-(3-(6-methoxy-benzene and isoxazole))piperidine]	7.59	
c1cnc(C2CCN(CCCCn3cnc4ccccc43)CC2)nc1 [II-31, N-(4-(1H-benzimidazol-1-yl)butyl)-4-(2-pyrimidinyl)piperidine]	47.9	
Fc1ccc2c(C3CCN(CCCn4nnc5ccc(F)cc54)CC3)noc2c1 [II-14, N-(3-(6-fluoro-1H-benzotriazole-1-yl)propyl)-4-(3-(6-fluorobenzoisoxazole))piperidine]	1.91	
FC(F)(F)c1cccc(C2CCN(CCCOn3cnc4ccccc43)CC2)c1 [II-11]	6.76	
c1ccc2nc(C3CCN(CCCCn4nnc5ccccc54)CC3)cnc2c1 [II-34, N-(4-(1H-benzotriazole-1-yl)butyl)-4-(2-quinoxalinyl)piperidine]	74.1	
COc1ccc2c(C3CCN(CCCCn4nnc5ccc(C#N)cc54)CC3)noc2c1 [II-23, N-(4-(6-cyano-benzotriazole-yl)butyl)-4-(3-(6-methoxy-benzene and isoxazole)) piperidine]	58.9	
Fc1ccc2nnn(CCCCN3CCC(c4cccc(C(F)(F)F)c4)CC3)c2c1 [II-7, N-(4-(6-fluoro-1H-benzotriazole-1-yl)butyl)-4-(3-trifluoromethylphenyl)piperidine]	9.33	
c1coc(C2CCN(CCCCn3cnc4ccccc43)CC2)c1 [II-29, N-(4-(1H-benzimidazol-1-yl)butyl)-4-(2-furyl)piperidine]	29.5	

SMILES	EC50 [1] [µM]	other results
COc1ccc2nnn(CCCCN3CCC(c4cccc(C(F)(F)F)c4)CC3)c2c1 [II-8, N-(4-(6-methoxy-1H-benzotriazole-1-yl)butyl)-4-(3-trifluoromethylphenyl)piperidine]	27.5	
FC(F)(F)c1cccc(C2CCN(CCCCn3cnc4ccccc43)CC2)c1 [Compound II-3, N-(4-(1H-benzimidazol-1-yl)butyl)-4-(3-trifluoromethylphenyl)piperidine]	0.977	
Clc1cccc(N2CCN(CCCCn3cnc4ccccc43)CC2)c1Cl [Compound II-37, 1-(4-(4-(2,3-dichlorophenyl)piperazin-1-yl)butyl)-1H-benzimidazole]	3.24	EC50 [2]: 0.977 µM; relaxant effect against AD contraction (in words) [2]: most significant relaxation effects; relaxant effect against hyperkalemia solution contraction (in words) [1]: significant relaxant effect
Clc1cccc(N2CCN(CCCCn3nnc4ccccc43)CC2)c1 [Compound II-63, 1-(4-(4-(3-chlorophenyl)piperazin-1-yl)butyl)-1H-benzotriazole]	2.29	EC50 [2]: 0.977 µM; relaxant effect against AD contraction (in words) [2]: most significant relaxation effects; relaxant effect against hyperkalemia solution contraction (in words) [1]: significant relaxant effect
Clc1cccc(N2CCN(CCCn3nnc4ccccc43)CC2)c1Cl [II-72, 1-(3-(4-(2,3-dichlorophenyl)piperazin-1-yl)propyl)-1H-benzotriazole]	4.68	EC50 [2]: 1.91 µM
FC(F)(F)c1cccc(C2CCN(CCCOn3nnc4ccccc43)CC2)c1 [II-10, N-(4-(1H-benzotriazole-1-yl)propoxy)-4-(3-trifluoromethylphenyl)piperidine]	6.03	
N#Cc1ccc2nnn(CCCCN3CCN(c4cccc(C(F)(F)F)c4)CC3)c2c1 [II-84, 6-cyano-1-(4-(4-(3-trifluoromethylphenyl)piperazin-1-yl)butyl)-1H-benzotriazole]	49	
COC(=O)c1ccc2nnn(CCCCN3CCN(c4cccc(C(F)(F)F)c4)CC3)c2c1 [II-85, 6-methoxycarbonyl-1-(4-(4-(3-trifluoromethylphenyl)piperazin-1-yl)butyl)-1H-benzotriazole]	77.6	
Cc1cccc(N2CCN(CCCn3nnc4ccccc43)CC2)c1 [II-73, 1-(3-(4-(3-methylphenyl)piperazin-1-yl)propyl)-1H-benzotriazole]	6.03	EC50 [2]: 3.39 µM
Cc1ccc2c(C3CCN(CCCn4nnc5ccccc54)CC3)noc2c1 [II-12, N-(3-(1H-benzotriazole-1-yl)propyl)-4-(3-(6-methyl-benzisoxazole))piperidine]	8.13	
O=Cc1ccc2nnn(CCCN3CCC(c4noc5cc(F)ccc45)CC3)c2c1 [II-18, N-(3-(6-formyl-1H-benzotriazole-1-yl)propyl)-4-(3-(6-fluorobenzoisoxazole))piperidine]	4.79	
Cc1ccc2nnn(CCCN3CCC(c4noc5cc(F)ccc45)CC3)c2c1 [II-16, N-(3-(6-methyl-1H-benzotriazole-1-yl)propyl)-4-(3-(6-fluorobenzoisoxazole))piperidine]	5.25	
N#Cc1ccc2nnn(CCCCN3CCC(c4cccc(C(F)(F)F)c4)CC3)c2c1 [II-9, N-(4-(6-cyano-1H-benzotriazole-1-yl)butyl)-4-(3-trifluoromethylphenyl)piperidine]	58.9	
COc1ccc2nnn(CCCN3CCC(c4noc5ccccc45)CC3)c2c1 [II-19, N-(3-(6-methoxybenzotriazolyl)propyl)-4-(3-benzoisoxazole)piperidine]	7.76	
c1ccc2c(c1)ncn2CCCCN1CCN(c2n[nH]c3ccccc23)CC1 [II-54, 1-(4-(4-(3-benzopyrazolyl)piperazin-1-yl)butyl)-1H-benzimidazole]	117	EC50 [2]: 58.9 µM
Fc1cccc(C2CCN(CCCCn3cnc4ccccc43)CC2)c1 [II-5, N-(4-(1H-benzimidazol-1-yl)butyl)-4-(3-fluorophenyl)piperidine]	36.3	
